# Patent publication US20220409620A1, “REDUCING IMMUNOGENICITY TO PEGLOTICASE” (Horizon Pharma Rheumatology LLC, priority 2016, published 2022)
# Test system: adult patients with uncontrolled gout
# Experiment: Serum uric acid (sUA) levels and sUA responder rate, open-label study of pegloticase with MTX (MIRROR OL)
# Type: in vivo, human
# Conditions: Month 6 sUA Responders
# Method: The primary objective is to estimate the response rate during Month 6 (Weeks 20, 22, and 24), as measured by the sustained normalization of serum uric acid (SUA) to <6 mg/dL for at least 80% of the time during Month 6 in subjects receiving KXX with MTX.
# The primary efficacy outcome endpoint is the sustained normalization of SUA to <6 mg/dL for at least 80% of the time during month 6 (weeks 20, 22, and 24) in subjects receiving KXX with MTX. […] Participants who achieve this endpoint were classified as “responders.” Serum uric acid (SUA) responders may also be defined as participants achieving and maintaining SUA <6 mg/dL for at least 80% of the time during Month 6 (Weeks 20, 22, and 24).
# Blood samples may be collected prior to each pegloticase infusion for measurement of SUA levels using the Beckman Coulter AU System Uric Acid procedure. Participants were declared “non-responders” if there were SUA measures >6 mg/dL at 2 consecutive study visits beginning with the week 2 visit. […] This assumption and subsequent discontinuation of pegloticase was consistent with the protocol of large phase III randomized controlled trials and the product label. A formal stopping rule was 2 occasions of SUA levels of greater than 6 mg/dL.
# Clinical Chemistry—Blood samples were collected prior to each pegloticase infusion for measurement of SUA levels (primary efficacy parameter) using the Beckman Coulter AU System Uric Acid procedure. In this procedure uric acid is converted to hydrogen peroxide. Hydrogen peroxide reacts with reagent to produce a chromophore which is read bichromatically at 660/800 nm. The amount of dye formed is proportional to the uric acid concentration in the sample.
# Serum samples for measurement of SUA levels were collected at the Screening Visit, the Week −4 Visit (prior to the first dose of MTX), and the Week −2 Visit during the MTX Run-in Period; within 48 hours prior to each pegloticase infusion and after the end of each pegloticase infusion prior to discharge from the site during the Pegloticase+IMM Period; at the non-infusion Week 52/End of Study/Early Termination Visits and at the Post Treatment 3 and 6 Month Follow-up Visits. Additional serum samples for SUA levels were collected at optional non-infusion (Frequent Sampling) Visits at Weeks 1 and 7. […] Subjects with SUA level >6 mg/dL at 2 consecutive visits beginning at Week 2 visit discontinued treatment, completed the End of Pegloticase Infusion Visit procedures within 2 weeks and continued the subject visits according to the protocol (without treatment).
# Efficacy analyses were performed using the modified intention-to-treat (mITT) population, defined as all enrolled subjects who received ≥1 dose of pegloticase. The proportion of Month 6 responders was summarized, along with a 95% confidence interval for the proportion. The proportion of Month 3 and overall (Months 3 and 6 combined) responders was analyzed similarly.
# A subject was declared a non-responder if the subject had SUA level >6 mg/dL at 2 consecutive study visits beginning with the Week 2 Visit. In addition, a subject who withdraws from study treatment for any reason after the first dose of pegloticase in the KXX+MTX Period and prior to Month 6 (for the primary endpoint) or Month 3 (for the secondary endpoint) was considered a non-responder if SUA values were not collected at the planned time points.
# Patients were administered oral MTX (15 mg/week) and folate (1 mg/day) 4 weeks prior to the first pegloticase infusion (Day 1) and throughout the pegloticase treatment period. Blood was drawn prior to each infusion to measure sUA level, monitor clinical parameters, and examine for ADA development. All patients followed typical IR prophylaxis protocols (fexofenadine one day before and the morning of each infusion and acetaminophen and IV corticosteroid the morning of each infusion).
# [1] = End of Pegloticase Infusions Visit, n=2
substance,measurement,setting,value
pegloticase,"Serum Uric Acid, Observed, Median","Day 1-Post-Infusion, n=8",0.30 mg/dL
same,"sUA <6 mg/dL, n (%)","Day 1-Post-Infusion, n=8",8 (100%)
same,"Serum Uric Acid, Change from Baseline, Mean (SD)",[1],−8.50 (1.556) mg/dL
same,"Serum Uric Acid, Change from Baseline, Median",[1],-8.50 mg/dL
same,"Serum Uric Acid, Observed, Mean (SD)",[1],0.30 (0.000) mg/dL
same,"Serum Uric Acid, Observed, Median",[1],0.30 mg/dL
same,"sUA <6 mg/dL, n (%)",[1],2 (100%)
same,"Serum Uric Acid, Change from Baseline, Mean (SD)","Week 1, n=4",−6.88 (1.836) mg/dL
same,"Serum Uric Acid, Change from Baseline, Median","Week 1, n=4",-7.15 mg/dL
same,"Serum Uric Acid, Observed, Mean (SD)","Week 1, n=4",0.30 (0.000) mg/dL
same,"Serum Uric Acid, Observed, Median","Week 1, n=4",0.30 mg/dL
same,"sUA <6 mg/dL, n (%)","Week 1, n=4",4 (100%)
same,"Serum Uric Acid, Change from Baseline, Mean (SD)","Week 2-Post-Infusion, n=11",−8.97 (2.810) mg/dL
same,"Serum Uric Acid, Change from Baseline, Median","Week 2-Post-Infusion, n=11",-8.80 mg/dL
same,"Serum Uric Acid, Observed, Mean (SD)","Week 2-Post-Infusion, n=11",0.30 (0.000) mg/dL
same,"Serum Uric Acid, Observed, Median","Week 2-Post-Infusion, n=11",0.30 mg/dL
same,"sUA <6 mg/dL, n (%)","Week 2-Post-Infusion, n=11",11 (100%)
same,"Serum Uric Acid, Change from Baseline, Mean (SD)","Week 2-Pre-Infusion, n=11",−8.64 (2.086) mg/dL
same,"Serum Uric Acid, Change from Baseline, Median","Week 2-Pre-Infusion, n=11",-8.80 mg/dL
same,"Serum Uric Acid, Observed, Mean (SD)","Week 2-Pre-Infusion, n=11",0.63 (1.096) mg/dL
same,"Serum Uric Acid, Observed, Median","Week 2-Pre-Infusion, n=11",0.30 mg/dL
same,"sUA <6 mg/dL, n (%)","Week 2-Pre-Infusion, n=11",11 (100%)
same,"Serum Uric Acid, Change from Baseline, Mean (SD)","Week 4-Post-Infusion, n=11",−8.97 (2.810) mg/dL
same,"Serum Uric Acid, Observed, Mean (SD)","Week 4-Post-Infusion, n=11",0.30 (0.000) mg/dL
same,"Serum Uric Acid, Change from Baseline, Mean (SD)","Week 4-Pre-Infusion, n=11",−8.59 (2.884) mg/dL
same,"Serum Uric Acid, Change from Baseline, Median","Week 4-Pre-Infusion, n=11",-8.60 mg/dL
same,"Serum Uric Acid, Observed, Mean (SD)","Week 4-Pre-Infusion, n=11",0.68 (1.043) mg/dL
same,"Serum Uric Acid, Observed, Median","Week 4-Pre-Infusion, n=11",0.30 mg/dL
same,"sUA <6 mg/dL, n (%)","Week 4-Pre-Infusion, n=11",11 (100%)
same,"sUA <6 mg/dL, n (%)","Week 7, n=4",4 (100%)
same,"Serum Uric Acid, Change from Baseline, Mean (SD)","Week 8-Post-Infusion, n=11",−8.97 (2.810) mg/dL
same,"Serum Uric Acid, Change from Baseline, Median","Week 8-Post-Infusion, n=11",-8.80 mg/dL
same,"Serum Uric Acid, Observed, Mean (SD)","Week 8-Post-Infusion, n=11",0.30 (0.000) mg/dL
same,"Serum Uric Acid, Observed, Median","Week 8-Post-Infusion, n=11",0.30 mg/dL
same,"sUA <6 mg/dL, n (%)","Week 8-Post-Infusion, n=11",11 (100%)
same,"Serum Uric Acid, Change from Baseline, Mean (SD)","Week 8-Pre-Infusion, n=11",−8.91 (2.824) mg/dL
same,"Serum Uric Acid, Change from Baseline, Median","Week 8-Pre-Infusion, n=11",-8.60 mg/dL
same,"Serum Uric Acid, Observed, Mean (SD)","Week 8-Pre-Infusion, n=11",0.37 (0.224) mg/dL
same,"Serum Uric Acid, Observed, Median","Week 8-Pre-Infusion, n=11",0.30 mg/dL
same,"sUA <6 mg/dL, n (%)","Week 8-Pre-Infusion, n=11",11 (100%)
same,"Serum Uric Acid, Change from Baseline, Mean (SD)","Week 10-Post-Infusion, n=11",−8.97 (2.810) mg/dL
same,"Serum Uric Acid, Change from Baseline, Median","Week 10-Post-Infusion, n=11",-8.80 mg/dL
same,"Serum Uric Acid, Observed, Mean (SD)","Week 10-Post-Infusion, n=11",0.30 (0.000) mg/dL
same,"Serum Uric Acid, Observed, Median","Week 10-Post-Infusion, n=11",0.30 mg/dL
same,"sUA <6 mg/dL, n (%)","Week 10-Post-Infusion, n=11",11 (100%)
same,"Serum Uric Acid, Change from Baseline, Mean (SD)","Week 10-Pre-Infusion, n=11",−8.97 (2.810) mg/dL
same,"Serum Uric Acid, Change from Baseline, Median","Week 10-Pre-Infusion, n=11",-8.80 mg/dL
same,"Serum Uric Acid, Observed, Mean (SD)","Week 10-Pre-Infusion, n=11",0.30 (0.000) mg/dL
same,"Serum Uric Acid, Observed, Median","Week 10-Pre-Infusion, n=11",0.30 mg/dL
same,"sUA <6 mg/dL, n (%)","Week 10-Pre-Infusion, n=11",11 (100%)
same,"Serum Uric Acid, Change from Baseline, Mean (SD)","Week 12-Post-Infusion, n=10",−9.13 (2.911) mg/dL
same,"Serum Uric Acid, Change from Baseline, Median","Week 12-Post-Infusion, n=10",-9.05 mg/dL
same,"Serum Uric Acid, Observed, Mean (SD)","Week 12-Post-Infusion, n=10",0.30 (0.000) mg/dL
same,"Serum Uric Acid, Observed, Median","Week 12-Post-Infusion, n=10",0.30 mg/dL
same,"sUA <6 mg/dL, n (%)","Week 12-Post-Infusion, n=10",10 (100%)
same,"Serum Uric Acid, Change from Baseline, Mean (SD)","Week 12-Pre-Infusion, n=11",−8.98 (2.806) mg/dL
same,"Serum Uric Acid, Change from Baseline, Median","Week 12-Pre-Infusion, n=11",-8.80 mg/dL
same,"Serum Uric Acid, Observed, Mean (SD)","Week 12-Pre-Infusion, n=11",0.30 (0.015) mg/dL
same,"Serum Uric Acid, Observed, Median","Week 12-Pre-Infusion, n=11",0.30 mg/dL
same,"sUA <6 mg/dL, n (%)","Week 12-Pre-Infusion, n=11",11 (100%)
same,"Serum Uric Acid, Change from Baseline, Mean (SD)","Week 14-Post-Infusion, n=10",−9.01 (2.959) mg/dL
same,"Serum Uric Acid, Change from Baseline, Median","Week 14-Post-Infusion, n=10",-9.05 mg/dL
same,"Serum Uric Acid, Observed, Mean (SD)","Week 14-Post-Infusion, n=10",0.30 (0.000) mg/dL
